# In patent US5110725A, “Optical probe for the cytochrome P-450 cholesterol side chain cleavage enzyme” (The United States of America as represented by the United …, priority 1991, dated 1992):
# Assays:
# [1] = target: T1, P-450scc enzyme (Gallus gallus, UniProt O13254); assay: Spectrofluorometry of resorufin production in mitochondrial preparations from chicken granulosa and MA-10 cells; assay type: biochemical; settings: for effect of inhibitor on observed resorufin fluorescence: added to steroidogenic mitochondrial preparations incubated with the probe
# T1 sequence (O13254 32-508): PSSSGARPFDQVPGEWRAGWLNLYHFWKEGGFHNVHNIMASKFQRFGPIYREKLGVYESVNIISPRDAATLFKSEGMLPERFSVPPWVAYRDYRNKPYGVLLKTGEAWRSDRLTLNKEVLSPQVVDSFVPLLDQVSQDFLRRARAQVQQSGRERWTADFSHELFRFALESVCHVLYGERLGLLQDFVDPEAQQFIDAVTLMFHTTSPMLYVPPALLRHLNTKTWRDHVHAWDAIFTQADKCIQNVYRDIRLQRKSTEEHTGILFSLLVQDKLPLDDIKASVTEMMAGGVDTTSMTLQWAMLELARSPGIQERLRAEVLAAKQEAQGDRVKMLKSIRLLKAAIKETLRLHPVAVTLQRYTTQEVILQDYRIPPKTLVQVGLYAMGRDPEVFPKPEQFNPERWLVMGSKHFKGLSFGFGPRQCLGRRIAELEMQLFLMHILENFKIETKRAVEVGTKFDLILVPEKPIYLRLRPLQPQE
# Experimental: (§1) A saturated stock solution of probe 10 was made in 95% ethanol and filtered with a 0.2 μm filter to a concentration of 100 μM. Probe 10 was added at 1:50 or 1:100 dilutions to cell or mitochondria suspensions.
# (§2) Cell Preparations: Granulosa cell layers were collected separately from the 5 largest preovulatory follicles of laying hens and cells were dispersed by collagenase digestion (Endocrinology 122:651-658). The cell concentration was adjusted to 1×10^6 cells/mL in modified medium 199 (no phenol red; added 25 mM HEPES, 0.35 g/L sodium bicarbonate, 100 mg/L 1-glutamate, and 1 g/L bovine serum albumin). The MA-10 cells (Endocrinology 108:88-95) were grown in RPMI-1640 medium supplemented with 15% horse serum and used three days after plating. Cell cultures of the Chinese hamster ovary (CHO) cell line were grown in spinner flasks with Ham's F-10 medium supplemented with 15% bovine calf serum. Media were obtained from Gibco BRL (Gaithersburg, Md.) and sera were obtained from HyClone Laboratories (Logan, Utah). Except where indicated all other reagents for cell preparations were obtained from Sigma Chemical Co. (St. Louis, Mo.). Cells in suspension (1×10^6 /mL) were kept on ice prior to use and at 37° C. during all incubations with probe 10.
# (§3) Spectrofluorometry: Fluorescence emission measurements were obtained on a SPEX Fluorolog-II spectrofluorometer (SPEX Industries, Inc., Edison, N.J.) fitted with a thermostatted cuvette holder and interfaced to an IBM-AT computer for data collection and processing. Resorufin fluorescence was measured from 550-700 nm (8 nm slit width) with 530 nm excitation (10 nm slit width). Spectra were background-corrected by spectral subtraction of the initial (zero) time point. Samples were incubated at 37° C. during the experiment.
# [2] = system: nonsteroidogenic CHO cells; assay: Spectrofluorometry with mitochondrial preparations from nonsteroidogenic CHO cells; assay type: biochemical, Chinese hamster
# Experimental: as §1
# as §2, with “Except where indicated all other reagents for cell preparations were obtained from Sigma Chemical Co. (St. Louis, Mo.). Cells in suspension (1×10^6 /mL) were kept on ice prior to use and at 37° C. during all incubations with probe 10.” left out
# as §3, with “Spectra were background-corrected by spectral subtraction of the initial (zero) time point. Samples were incubated at 37° C. during the experiment.” left out
# [3] = system: granulosa cells; assay: Conventional two-laser flow cytometric analysis of P-450scc activity in granulosa cells; assay type: cell-based, laying hens; settings: 37° C., 5 min to 2 h
# Experimental: as §2
# Uptake of the substrate (green fluorescence) plateaued at 30 minutes, presumably as the cells equilibrated with the P-450scc probe in solution.
# [4] = system: granulosa cells; assay: Fourier transform flow cytometry of substrate metabolism in individual granulosa cells; assay type: cell-based, laying hens
# Experimental: as §2, with “Except where indicated all other reagents for cell preparations were obtained from Sigma Chemical Co. (St. Louis, Mo.). Cells in suspension (1×10^6 /mL) were kept on ice prior to use and at 37° C. during all incubations with probe 10.” left out
# The Fourier transform flow cytometer was used to track the metabolism of the fluorogenic substrate in individual granulosa cells. […] Using this instrument, cellular fluorescence of the substrate is resolved from the cellular fluorescence of the product, resorufin anion, based on their unique spectral characteristics during the uptake and metabolism of the P-450scc probe.
# (§4) By monitoring spectral changes in the cellular fluorescence at discrete time points from 30 min to 5 h with the FTCS-1 an increased metabolism of the substrate to the product resorufin was observed. […]
# [5] = system: P-450scc; assay: Selectivity of the probe in intact mitochondria and cells; assay type: cell-based
# Experimental: as §1
# [6] = system: nonsteroidogenic CHO cells; assay: Fourier transform flow cytometry with nonsteroidogenic CHO cells; assay type: cell-based, Chinese hamster
# Experimental: as §2
# A single argon laser tuned to 514 nm was used to excite both the substrate and product. […]
# as §4
# [7] = system: P-450scc enzyme; assay: Spectrofluorometry of probe metabolism in MA-10 and granulosa cell suspensions; assay type: cell-based
# Experimental: as §1
# (§5) Cell Preparations: Granulosa cell layers were collected separately from the 5 largest preovulatory follicles of laying hens and cells were dispersed by collagenase digestion (Endocrinology 122:651-658). The cell concentration was adjusted to 1×10^6 cells/mL in modified medium 199 (no phenol red; added 25 mM HEPES, 0.35 g/L sodium bicarbonate, 100 mg/L 1-glutamate, and 1 g/L bovine serum albumin). […]
# as §3, with “Spectra were background-corrected by spectral subtraction of the initial (zero) time point. Samples were incubated at 37° C. during the experiment.” left out
# To confirm cellular metabolism, both MA-10 and granulosa cell suspensions were incubated with varying concentrations of the probe substrate. Fluorescence emission was monitored at discrete times from 0-4 h. […] Based on the amount of fluorescence in a typical cell incubation the cumulative conversion of the probe was in the concentration range of 100-300 pM. […]
# [8] = system: granulosa or MA-10 cells; assay: Progesterone radioimmunoassay after incubation of granulosa or MA-10 cells with the probe; assay type: cell-based; settings: 3-5 h incubation, 1-2 μM probe
# Experimental: as §5, with “albumin). The MA-10 cells (Endocrinology 108:88-95) were grown in RPMI-1640 medium supplemented with 15% horse serum and used three days after plating. Cell cultures of the Chinese hamster ovary (CHO) cell line were grown in spinner flasks with Ham's F-10 medium supplemented with 15% bovine calf serum.” for “albumin).”
# To confirm cellular metabolism, both MA-10 and granulosa cell suspensions were incubated with varying concentrations of the probe substrate. Fluorescence emission was monitored at discrete times from 0-4 h. […] Based on the amount of fluorescence in a typical cell incubation the cumulative conversion of the probe was in the concentration range of 100-300 pM. After long (3-5 h) incubations of granulosa or MA-10 cells with a high concentration (1-2 μM) of the P-450scc probe, a two-fold accumulation of progesterone over the background progesterone content of the cells was measured by specific progesterone radioimmunoassay (Endocrine Sciences, Tarzana, Calif.).
# [9] = assay type: physicochemical; settings: 95% ethanol
# Experimental: as §1
# [10] = Fluorescence quantum efficiency relative to the resorufin anion; assay type: physicochemical; settings: resorufin conjugated at C-22
# From the text: Referring now to FIG. 2, the P-450scc probe 10 is a cholene-based steroid covalently conjugated at the C-22 position to resorufin. As a result of this conjugation the resorufin fluorescence is shifted and has a 40-fold lower quantum efficiency than the resorufin anion. Specificity of probe 10 for the P-450scc enzyme is achieved by incorporating known structural and stereochemical features to the cholene-ring for enzyme recognition. Generation of a fluorescent signal is obtained by release of the resorufin moiety 16 by the side chain cleavage enzyme.
# Resorufin (7-hydroxy-3H-phenoxazin-3-one) was chosen as a fluorogenic reporter because of its advantageous spectral properties and its modest size. […] Presumably, metabolism of a resorufin ether 10 by P-450scc proceeds by hydroxylation at the C-1 position of the ether side chain, to yield a resorufin hemiacetal that undergoes cleavage to afford the highly fluorescent resorufin anion. The fluorescence signal generated by the formation of resorufin anion is a quantitative indicator of enzyme activity.
structure (smiles),measurement,setting,value
CCC1(c2ccc(N)cc2)CCC(=O)NC1=O (stereo not shown) [aminoglutethimide],effect of inhibitor on observed resorufin fluorescence,[1],attenuated the observed fluorescence
CC(=O)N1CCN(c2ccc(OCC3COC(Cn4ccnc4)(c4ccc(Cl)cc4Cl)O3)cc2)CC1 (stereo not shown) [ketoconazole],effect of inhibitor on observed resorufin fluorescence,[1],attenuated the observed fluorescence
"C[C@H](COc1ccc2nc3ccc(=O)cc-3oc2c1)[C@H]1CC[C@H]2[C@@H]3CC=C4C[C@@H](O)CC[C@]4(C)[C@H]3CC[C@]12C [probe 10, 22-phenoxazonoxy-5-cholene-3β-ol]",production of fluorescence,[2],no production of fluorescence
same,product (red fluorescence) in cells during incubation,[3],continued to increase
same,time at which uptake of the substrate (green fluorescence) plateaued,[3],30 min
same,average ratio of the two fluorescent components (substrate and resorufin) over time,[4]; 30 min to 5 h,linear increase
same,alignment of the cell distribution with the product resorufin,[4]; after 5 h,~100%
same,selectivity,[5],selective for P-450scc activity
same,cellular fluorescence spectrum,"[6]; CHO cells, 3 h incubation",remained primarily consistent with the substrate spectrum
same,metabolism of the substrate to resorufin,[6]; nonsteroidogenic CHO cells,no evidence of significant metabolism
same,resorufin fluorescence over time,"[7]; MA-10 and granulosa cell suspensions, 0-4 h, varying probe concentrations",linear increase in resorufin fluorescence
same,cumulative conversion of the probe,"[7]; typical cell incubation, based on amount of fluorescence",100 to 300 pM
same,accumulation of progesterone over background progesterone content of the cells,[8],two-fold
same,concentration of saturated stock solution,[9],100 µM
same,quantum efficiency lower than the resorufin anion,[10],40 fold
same,resorufin production,"[1]; steroidogenic mitochondria (chicken granulosa, MA-10), 30 min to 5 h, substrate 0.01 to 2 μM",resorufin production was observed
